This is an account of results in patent publication US12077555B2, “STAT degraders and uses thereof” (Kymera Therapeutics, Inc., priority 2019, dated 2024).

In the test the target is STAT3 (Homo sapiens, UniProt P40763). The test can be described thus: Quantitation of STAT3 degradation in A549 cells by Western blot. It is filed as cell-based. On the set-up: expressed in transfected cells; host or cells: A549. As to the method: Degradation of total cellular STAT3 protein in A549 was quantitatively measured using SDS-PAGE and Western blot analysis. A549 cells (5×10^5 cells/well, 2 mL) were seeded into 6-well plates and were incubated in the incubator under 5% CO2 overnight to reach ˜80% confluency. The next day, the culture medium was changed with 1 ml fresh media. Then, 1 mL of media containing 2× compound solution was added into the well to make the final concentration of 30 μM, 10 μM, 3 μM, 1 μM, 0.3 μM and 0 μM (DMSO). The media was thoroughly mixed and incubated for 24 hours at 37° C. under 5% CO2. Then, the culture media was removed from the assay plates and the cells were washed with ice-cold PBS twice. To prepare cell lysates, 200 ul pre-chilled RIPA lysis buffer (Boston BioProducts BP-115D) with protease/phosphatase inhibitor (Roche 05892791001/Roche 04906837001) was added directly into the well to lyse the cells for 20 minutes on ice. The cell lysates were then transferred to centrifuge tubes. Insoluble part of lysates was removed by centrifuging the lysates at 13000 rpm for 20 minutes. The supernatant was then collected and mixed with 5× loading buffer (Beyotime Bio P0015) to make the final samples for SDS-PAGE analysis. The samples were heated at 100° C. for 10 minutes and cool to room temperature before centrifuging at 13000 rpm for 20 minutes. To analyze the samples by SDS-PAGE, 10 ul samples were loaded onto SDS-PAGE gel (Novex, WG1403BOX) and the SDS-PAGE gel was run for 20 minutes at 80 V, then at 120 V for 1.5 hours. The SDS-PAGE gel was then transferred to nitrocellulose membrane using the wet-transfer method at 250 mA for 1.5 hours. The membrane was then blocked with LI-COR blocking buffer (LI-COR, 927-50000) for 1 hour and was probed with primary antibody (mouse anti-STAT3 (124H6) (CST #91395) 1:2000 or mouse anti-beta-Actin (8H10D10) (CST #3700) 1:10000) at 4° C. overnight. The membrane was then washed three times with TBST buffer and probed with secondary antibody (anti-mouse IgG (LI-COR, 926-68070), 1:5000) for 1 hour at room temperature. The membrane was then scanned on a LI-COR Odyssey instrument and was quantified using Image Studio Version 5.2. Concentration at 50% degradation (DC50) was calculated by fitting dose dependent degradation data using a sigmoidal equation using GraphPad Prism Version 8.0.
(In general: A western blot detects proteins with antibodies after separation by electrophoresis.)

The mark [1] stands for this setting: read-out: A549 DC50, 24 hours, tested up to 30 μM or 10 μM.

SMILES strings stand for the structures. Read-outs that look alike come from different tables or passages of the source.

Sequence of STAT3 (P40763 whole entry): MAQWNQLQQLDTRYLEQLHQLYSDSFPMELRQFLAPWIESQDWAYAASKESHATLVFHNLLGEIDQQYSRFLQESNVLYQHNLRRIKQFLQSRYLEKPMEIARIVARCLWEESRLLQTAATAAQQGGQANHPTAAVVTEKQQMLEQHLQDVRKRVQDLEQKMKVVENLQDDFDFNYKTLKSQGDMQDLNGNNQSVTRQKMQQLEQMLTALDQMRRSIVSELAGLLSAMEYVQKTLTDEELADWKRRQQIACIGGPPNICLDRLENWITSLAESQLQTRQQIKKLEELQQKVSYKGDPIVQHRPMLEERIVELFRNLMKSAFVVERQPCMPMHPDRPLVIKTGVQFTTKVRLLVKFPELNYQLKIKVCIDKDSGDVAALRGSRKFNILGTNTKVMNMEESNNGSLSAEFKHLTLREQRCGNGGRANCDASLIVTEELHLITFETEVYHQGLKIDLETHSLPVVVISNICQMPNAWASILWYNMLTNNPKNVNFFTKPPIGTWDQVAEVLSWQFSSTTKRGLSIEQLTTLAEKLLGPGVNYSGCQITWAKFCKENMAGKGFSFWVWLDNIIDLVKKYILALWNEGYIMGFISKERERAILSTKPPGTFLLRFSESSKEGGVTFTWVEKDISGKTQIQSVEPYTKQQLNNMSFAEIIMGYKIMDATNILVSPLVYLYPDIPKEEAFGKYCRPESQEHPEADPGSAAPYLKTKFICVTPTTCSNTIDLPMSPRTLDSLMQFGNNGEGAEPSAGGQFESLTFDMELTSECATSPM

As usually defined, the DC50 is the concentration giving 50% degradation. With `C/C(=C\C(=O)N[C@H]1CCc2cccc3c2N(C1=O)[C@H](C(=O)N[C@@H](CCC(N)=O)[C@@H](C)OCc1ccc(CCCCC(=O)N[C@H](C(=O)N2C[C@H](O)C[C@H]2C(=O)NCc2ccc(-c4scnc4C)cc2)C(C)(C)C)cc1)C3)c1ccc(CP(=O)(O)O)cc1` [Compound I-80, diammonium [4-[(1E)-1-[[(2S,11S)-2-[[(3S,4R)-1-carbamoyl-4-[[4-(4-[[(2S)-1-[(2S,4R)-4-hydroxy-2-([[4-(4-methyl-1,3-thiazol-5-yl)phenyl]methyl]carbamoyl)pyrrolidin-1-yl]-3,3-dimethyl-1-oxobutan-2-yl]carbamoyl]butyl)phenyl]methoxy]pentan-3-yl]carbamoyl]-12-oxo-1-azatricyclo[6.4.1.0^[4,13]]trideca-4(13),5,7-trien-11-yl]carbamoyl]prop-1-en-2-yl]phenyl]methylphosphonate], the DC50 (24 hours, tested up to 30 μM or 10 μM, read-out: A549 DC50) was more than 30 µM.

As to `Cn1c(=O)n(C2CCC(=O)NC2=O)c2ccc(CCCCCC(=O)N3CC[C@H]4CC[C@@H](C(=O)N[C@@H](CCC(N)=O)C(=O)NC(c5ccccc5)c5ccccc5)N4C(=O)[C@@H](NC(=O)c4cc5cc(C(=O)P(=O)(O)O)ccc5[nH]4)C3)cc21` (stereo partly drawn) [Compound I-107, 2-[[(5S,8S,10aR)-8-[[(1S)-3-carbamoyl-1-(diphenylmethylcarbamoyl)propyl]carbamoyl]-3-[6-[1-(2,6-dioxopiperidin-3-yl)-3-methyl-2-oxo-1,3-benzodiazol-5-yl]hexanoyl]-6-oxo-octahydropyrrolo[1,2-a][1,5]diazocin-5-yl]carbamoyl]-1H-indole-5-carbonylphosphonic acid], the 50% degradation concentration (DC50) under setting [1] was less than 30 µM.

Take `C/C(=C\C(=O)N[C@H]1CCc2cccc3c2N(C1=O)[C@H](C(=O)N[C@@H](CCC(N)=O)[C@@H](C)OCc1ccc(CCOCCOCC(=O)N[C@H](C(=O)N2C[C@H](O)C[C@H]2C(=O)NCc2ccc(-c4scnc4C)cc2)C(C)(C)C)cc1)C3)c1ccc(C(F)(F)P(=O)(OCOC(=O)C(C)(C)C)OCOC(=O)C(C)(C)C)cc1` [Compound I-31]: the half-maximal degradation concentration (DC50) under setting [1] was more than 30 µM.

Consider `C/C(=C\C(=O)N[C@H]1CCc2cccc3c2N(C1=O)[C@H](C(=O)N[C@@H](CCC(N)=O)[C@@H](C)OCc1ccc(CCCCCCC(=O)N[C@H](C(=O)N2C[C@H](O)C[C@H]2C(=O)NCc2ccc(-c4scnc4C)cc2)C(C)(C)C)cc1)C3)c1ccc(C(F)(F)P(=O)(OCOC(=O)C(C)(C)C)OCOC(=O)C(C)(C)C)cc1` [Compound I-28], for which the DC50 under setting [1] is less than 30 µM.

In the case of `C/C(=C\C(=O)N[C@H]1CCc2cccc3c2N(C1=O)[C@H](C(=O)NC(CCC(N)=O)[C@@H](C)OCc1ccc(CCCOCCCCCc2ccc4c(c2)n(C)c(=O)n4C2CCC(=O)NC2=O)cc1)C3)c1ccc(C(F)(F)P(=O)(OCOC(=O)C(C)(C)C)OCOC(=O)C(C)(C)C)cc1` (stereo partly drawn) [Compound I-36, [([4-[(1E)-1-[[(2S,11S)-2-[[(3S,4R)-1-carbamoyl-4-([4-[3-([5-[1-(2,6-dioxopiperidin-3-yl)-3-methyl-2-oxo-1,3-benzodiazol-5-yl]pentyl]oxy)propyl]phenyl]methoxy)pentan-3-yl]carbamoyl]-12-oxo-1-azatricyclo[6.4.1.0^[4,13]]trideca-4(13),5,7-trien-11-yl]carbamoyl]prop-1-en-2-yl]phenyl]difluoromethyl([(2,2-dimethylpropanoyl)oxy]methoxy)phosphoryl)oxy]methyl 2,2-dimethylpropanoate], the 50% degradation concentration (DC50) under setting [1] was more than 10 µM.

As to `C/C(=C\C(=O)N[C@H]1CCc2cccc3c2N(C1=O)[C@H](C(=O)N[C@@H](CCC(N)=O)[C@@H](C)OCc1ccc(CCC(=O)N[C@H](C(=O)N2C[C@H](O)CC2C(=O)NCc2ccc(-c4scnc4C)cc2)C(C)(C)C)cc1)C3)c1ccc(C(F)(F)P(=O)(OCOC(=O)C(C)(C)C)OCOC(=O)C(C)(C)C)cc1` (stereo partly shown) [Compound I-12], the 50% degradation concentration (DC50) under setting [1] was more than 30 µM.

As for `C/C(=C\C(=O)N[C@H]1CN(C(=O)CCCCCC#Cc2cccc3c2CN(C2CCC(=O)NC2=O)C3=O)CC[C@H]2CC[C@@H](C(=O)N[C@@H](CCC(N)=O)C(=O)NC(c3ccccc3)c3ccccc3)N2C1=O)c1ccc(C(F)(F)P(=O)(O)O)cc1` (stereo partly drawn) [Compound I-115, ((4-((E)-4-(((5S,8S,10aR)-8-(((S)-5-amino-1-(benzhydrylamino)-1,5-dioxopentan-2-yl)carbamoyl)-3-(8-(2-(2,6-dioxopiperidin-3-yl)-1-oxoisoindolin-4-yl)oct-7-ynoyl)-6-oxodecahydropyrrolo[1,2-a][1,5]diazocin-5-yl)amino)-4-oxobut-2-en-2-yl)phenyl)difluoromethyl)phosphonic acid], under setting [1], the 50% degradation concentration (DC50) is less than 30 µM.

Regarding `C/C(=C\C(=O)N[C@H]1CCc2cccc3c2N(C1=O)[C@H](C(=O)N[C@@H](CCC(N)=O)[C@@H](C)OCc1ccc(CCCCC(=O)N[C@H](C(=O)N2C[C@H](O)C[C@H]2C(=O)NCc2ccc(-c4scnc4C)cc2)C(C)(C)C)cc1)C3)c1ccc(C(F)(F)P(=O)(OCOC(=O)C(C)(C)C)OCOC(=O)C(C)(C)C)cc1` [Compound I-8, (2S,4R)-1-[(2S)-2-[5-[4-([[(2R,3S)-3-[[(2S,11S)-11-amino-12-oxo-1-azatricyclo[6.4.1.0^[4,13]]trideca-4(13),5,7-trien-2-l]formamido]-5-carbamoylpentan-2-yl]oxy]methyl)phenyl]pentanamido]-3,3-dimethylbutanoyl]-4-hydroxy-N-[[4-(4-methyl-1,3-thiazol-5-yl)phenyl]methyl]pyrrolidine-2-carboxamide], the DC50 under setting [1] is less than 30 µM.

Turning to `CCCC[C@H](NC(=O)/C=C(\C)c1ccc(C(F)(F)P(=O)(OCOC(=O)C(C)(C)C)OCOC(=O)C(C)(C)C)cc1)C(=O)N1C[C@H]2C[C@H]2[C@H]1C(=O)N[C@@H](CCC(N)=O)[C@@H](C)OCc1ccc(CCCNC(=O)COCCOCCOCCCc2ccc3c(c2)n(C)c(=O)n3C2CCC(=O)NC2=O)cc1` (stereo partly drawn) [Compound I-59, [([4-[(1E)-1-[[(2S)-1-[(1R,2S,5S)-2-[[(3S,4R)-1-carbamoyl-4-[[4-(3-[2-[2-(2-[3-[1-(2,6-dioxopiperidin-3-yl)-3-methyl-2-oxo-1,3-benzodiazol-5-yl]propoxy]ethoxy)ethoxy]acetamido]propyl)phenyl]methoxy]pentan-3-yl]carbamoyl]-3-azabicyclo[3.1.0]hexan-3-yl]-1-oxohexan-2-yl]carbamoyl]prop-1-en-2-yl]phenyl]difluoromethyl([(2,2-dimethylpropanoyl)oxy]methoxy)phosphoryl)oxy]methyl 2,2-dimethylpropanoate], under setting [1], the half-maximal degradation concentration (DC50) is more than 30 µM.

As to `Cn1c(=O)n(C2CCC(=O)NC2=O)c2ccc(C#CCCCCC(=O)N3CC[C@H]4CC[C@@H](C(=O)N[C@@H](CCC(N)=O)C(=O)NC(c5ccccc5)c5ccccc5)N4C(=O)[C@@H](NC(=O)c4cc5cc(C(=O)P(=O)(O)O)ccc5[nH]4)C3)cc21` (stereo partly drawn) [Compound I-99, 2-[[(5S,8S,10aR)-8-[[(1S)-3-carbamoyl-1-(diphenylmethylcarbamoyl)propyl]carbamoyl]-3-[7-[1-(2,6-dioxopiperidin-3-yl)-3-methyl-2-oxo-1,3-benzodiazol-5-yl]hept-6-ynoyl]-6-oxo-octahydropyrrolo[1,2-a][1,5]diazocin-5-yl]carbamoyl]-1H-indole-5-carbonylphosphonic acid], the DC50 under setting [1] is less than 30 µM.

For the molecule `C/C(=C\C(=O)N[C@H]1CN(C(=O)CCCCCCc2ccc3c(c2)n(C)c(=O)n3C2CCC(=O)NC2=O)CC[C@H]2CC[C@@H](C(=O)N[C@@H](CCC(N)=O)C(=O)NC(c3ccccc3)c3ccccc3)N2C1=O)c1ccc(C(F)(F)P(=O)(O)O)cc1` (stereo partly shown) [Compound I-112], the 50% degradation concentration (DC50) under setting [1] was less than 30 µM.

Turning to `C/C(=C\C(=O)N[C@H]1CCc2cccc3c2N(C1=O)[C@H](C(=O)N[C@@H](CCC(N)=O)[C@@H](C)OCc1ccc(CCOCCOCCOCCOCC(=O)N[C@H](C(=O)N2C[C@H](O)C[C@H]2C(=O)NCc2ccc(-c4scnc4C)cc2)C(C)(C)C)cc1)C3)c1ccc(C(F)(F)P(=O)(OCOC(=O)C(C)(C)C)OCOC(=O)C(C)(C)C)cc1` [Compound I-27], the DC50 under setting [1] is more than 10 µM.

With `C/C(=C\C(=O)N[C@H]1CN(C(=O)CCCCCc2ccc3c(c2)n(C)c(=O)n3C2CCC(=O)NC2=O)CC[C@H]2CC[C@@H](C(=O)N[C@@H](CCC(N)=O)C(=O)NC(c3ccccc3)c3ccccc3)N2C1=O)c1ccc(C(F)(F)P(=O)(O)O)cc1` (stereo partly drawn) [Compound I-114, [4-[(1E)-1-[[(5S,8S,10aR)-8-[[(1S)-3-carbamoyl-1-(diphenylmethylcarbamoyl)propyl]carbamoyl]-3-[6-[1-(2,6-dioxopiperidin-3-yl)-3-methyl-2-oxo-1,3-benzodiazol-5-yl]hexanoyl]-6-oxo-octahydropyrrolo[1,2-a][1,5]diazocin-5-yl]carbamoyl]prop-1-en-2-yl]phenyl]difluoromethylphosphonic acid], the 50% degradation concentration (DC50) under setting [1] is more than 30 µM.
